The source of these data is patent US8680076B2, “Methods of treatment, improvement and prevention using haloaryl substituted aminopurines” (Signal Pharmaceuticals, LLC, priority 2010, dated 2014).

Molecules are shown by their SMILES. “Also recorded” adds a separate entry of the source.

For one assay, the system named is SKH-1 mice epidermis. The experiment in a line: UVB-induced apoptosis (TUNEL) in skin of SKH-1 mice. It is filed as in vivo, mouse. Conditions: 75 mg/kg PO BID for 5 days before UVB 0.5 J/cm^2, vs vehicle. The source says: Ultraviolet B (UVB) light is known to induce breaks in DNA (nicks) that can trigger the process of apoptosis, and these nicks can be labeled and visualized with terminal deoxynucleotidyl transferase dUTP nick end labeling (TUNEL). TUNEL technology identifies DNA breaks by labeling free 3′-OH terminals with modified (fluorescing) nucleotides in an enzymatic reaction that makes the damaged apoptotic cells fluoresce. This study was one of a series of pharmacology studies designed to determine the effects of the JNK inhibitor, Compound JNKi-1, on UVB-induced apoptosis in the skin of mice.
Female SKH-1 mice (Charles River, n=17 total) were obtained at a body weight of 15 g to 20 g. Mice were housed in regular shoebox cages and allowed to become acclimated for a minimum of 1 week. Mice were fed Harlan Teklad (No. 7001) 4% mouse/rat diet and water ad libitum and were maintained on a 12-hour light/dark cycle. […]
A Leica microscope with a CoolSNAP digital camera was used to obtain 5 random 20× magnification fluorescent images from five sections of skin epidermis and the number of TUNEL-positive green cells was counted to determine the average number of cells per animal and group (n=5).
Statistical one-way analysis of variance (ANOVA) was performed followed by Bonferroni's multiple comparison test (Graph Pad Prism). The data were expressed as mean±standard error of the mean (SEM).

In assay [1] the test system is phospho-c-Jun (JNK) in normal human epithelial keratinocytes (nHEK). The experiment in a line: UVB-stimulated JNK activation in nHEK cells (Western blot). Type of assay: cell-based. The protocol: Two in vitro systems, nHEK and the EpiDermFT™ skin model, were used in this study. The nHEK cells and EpiDermFT™ samples were pretreated with JNKi-1 at concentrations of 0.1, 3, and 10 μM prior to 60 mJ/cm^2 and 135 mJ/cm^2 UVB irradiation, respectively. After UV stimulation, the activities of JNK were measured as levels of phospho-c-Jun via immunoblotting of cell lysates using an anti-phospho-c-Jun S63 antibody. Phospho-Stat3 was also evaluated as a marker of JNK activation.
nHEK Model system. Normal human epithelial keratinocytes (nHEK) cells were grown after three passages. Cells were plated at 2×10^6/plate in 100 mm plates. Plates were incubated at 37° C., 5% CO2 for 5 days until ˜80% confluent. Each plate was washed with warm phosphate buffered saline (PBS) and replenished with 10 mL of media containing either 0, 0.1, 3, or 10 μM of JNKi-1 and incubated for 1 hour (hr) at 37° C. Eight mL of media were removed and set aside. Plates were irradiated with 60 mJ/cm^2 of UVB in a UV cross-linker machine and control plates were sham irradiated. The 8 mL of media set aside were returned to each plate and stored at 37° C. Cells were harvested at 30 minutes and 4 hr post UV treatment and lysed in ice cold cell extraction buffer. Lysates were stored at −80° C.
cells were pre-incubated with either dimethyl sulfoxide (DMSO) (FIG. 31, lanes 1, 2, and 12 to 15) or JNKi-1 at the indicated concentration (lanes 3 to 11) for 1 hr and then irradiated without (Control, lanes 1 and 2) or with UVB at 60 mJ/cm^2 (lanes 3 to 15). Cells were lysed 30 minutes after UV irradiation and cell lysates were subjected to sodium dodecyl sulfate polyacrylamide gel electrophoresis (SDS-PAGE) before Western blotting with anti-phospho-c-Jun antibody. […]
Western analysis: For Western blot analysis, 20 to 25 μg of total protein were applied to SDS-PAGE gels followed by electrophoresis and blotting. […] The intensity of each band was quantified by the Odyssey 2.1 software and exported into Excel for further analysis. […]
In general terms: In western blotting, separated proteins are transferred to a membrane and probed.

For orientation: IC50 means the point on the concentration scale where inhibition reaches its midpoint. As for `O[C@H]1CC[C@H](Nc2ncc3nc(Nc4c(F)cc(F)cc4F)n([C@H]4CCOC4)c3n2)CC1` [JNKi-1, 4-((9-((3S)-tetrahydro-3-furanyl)-8-((2,4,6-trifluorophenyl)amino)-9H-purin-2-yl)amino)-trans-cyclohexanol], the “number of TUNEL-positive cells in epidermis 24 hr post UV exposure” value with SKH-1 mice epidermis is listed as “can inhibit apoptotic cell death; also recorded: significantly (p<0.01) decreased”. Also, the IC50 in assay [1] (Homo sapiens, light or radiation study, nHEK, 1 hr pretreatment, UVB 60 mJ/cm^2, lysed 30 minutes after UV, read-out: IC50 for p-cJun) was in the range of 0.1 to 3 µM. In addition, in assay [1] (nHEK, 0.1, 3, 10 μM), the “UVB-induced JNK activation (phospho-c-Jun level), in words” value is on record as “strongly Inhibits; also recorded: significantly blocks”. For the same compound, the “inhibition of phospho-Stat3” value in assay [1] (nHEK, 30 minutes post UV, data not shown) is on record as “minimal”.
